# Results reported in patent US8546403B2, “Compounds that modulate intracellular calcium” (Calcimedica, Inc., priority 2010, dated 2013).
# Assay: Microsomal stability of compounds (liver microsomes, LC/MS/MS)
# Type: in vitro ADME
# Settings: 5 μM test compound, 1 mg/mL microsomal protein, 37° C. up to 60 minutes, species and Phase I / Phase I+II not given
# Procedure: Microsomal Stability of Compounds Described Herein
# Liver microsomes are purchased from XenoTech, LLC (Lenexa, Kans.). Other chemicals are obtained from Sigma-Aldrich (Milwaukee, Wis.). Solvents for LC/MS/MS mobile phases and disposable labware are obtained from various vendors.
# Study Protocol Phase I Only (Oxidative Metabolism in the Presence of NADPH-Regenerating System but without UDPGA):
# A mixture of the test compound and liver microsomes (475 μL total) are pre-incubated for 5 minutes at 37° C. The reactions are initiated by the addition of 25 μL of the co-factor NADPH regenerating system) and are allowed to proceed at 37° C. for up to 60 minutes. The final concentrations in the assay were: 5 μM test compound, 1 mg/mL microsomal protein, 1 mM NADP+, 5 mM glucose-6-phosphate and 1 U/mL glucose-6-phosphate dehydrogenase in 50 mM potassium phosphate (pH 7.4) containing 3.3 mM MgCl2 and 100 μM EDTA. […] At pre-determined time points, the reactions are terminated by removing 50 μL-aliquots and quenching them with […] of ACN mixture containing 0.5 μM of the internal standard (carbamazepine) to achieve protein precipitation. The samples are vortexed, centrifuged at 4000 rpm (3400 rcf) for 15 minutes, and clear supernatants are analyzed by LC/MS/MS.
# Phase I and II: (Oxidative Metabolism and Conjugation in the Presence of NADPH-Regenerating System and UDPGA):
# The reaction mixtures are prepared similar to what is described above, except 6.6 mM UDPGA, 6.25 μg/mL alamethicin, and 1.25 mM of D-Saccharic acid 1,4-lactone (final assay concentrations) are also added together with the NADPH-regenerating system. Midazolam and 4-methylumbelliferone are used as positive controls for Phase I and Phase II, respectively.
# Bioanalysis is conducted using a non-GLP LC/MS/MS method. Calibration curves are not generated and the ratios of the test compound peak area to the internal standard peak area are used to determine the relative amounts of test compound remaining at each time point.
row,SMILES,Microsomal t ½ (min)
1,Cc1cc2c(cc1-c1cnc(NC(=O)c3c(F)cncc3F)cn1)OC(F)(F)O2 [Compound 28],Stable (Stable is defined herein as less than 10% degradation)
2,O=C(Nc1ccc(-c2cc3c(cc2Cl)OC(F)(F)O3)cn1)c1ccncc1Cl [Compound 8],Stable (Stable is defined herein as less than 10% degradation)
3,CC(C)C(=O)Nc1ccc(-c2cc3c(cc2Cl)OC(F)(F)O3)cn1 [Compound 34],Stable (Stable is defined herein as less than 10% degradation)
4,Cc1nnsc1C(=O)Nc1cnc(-c2cc3c(cc2Cl)OC(F)(F)O3)cn1 [Compound 14],Stable (Stable is defined herein as less than 10% degradation)
5,Cc1cc2c(cc1-c1ccc(NC(=O)c3c(F)cncc3F)nc1)OC(F)(F)O2 [Compound 35],Stable (Stable is defined herein as less than 10% degradation)
6,Cc1cc2c(cc1-c1cnc(NC(=O)c3ccccc3F)cn1)OC(F)(F)O2 [Compound 25],Stable (Stable is defined herein as less than 10% degradation)
7,O=C(Nc1ccc(-c2cc3c(cc2Cl)OC(F)(F)O3)cn1)c1c(F)cncc1F [Compound 9],Stable (Stable is defined herein as less than 10% degradation)
8,O=C(Nc1cnc(-c2cc3c(cc2Cl)OC(F)(F)O3)cn1)c1ccccc1F [Compound 13],Stable (Stable is defined herein as less than 10% degradation)
9,Cc1cc2c(cc1-c1cnc(NC(=O)c3c(F)cccc3F)cn1)OC(F)(F)O2 [Compound 23],Stable (Stable is defined herein as less than 10% degradation)
10,Cc1cc2c(cc1-c1ccc(NC(=O)c3c(F)cccc3F)nc1)OC(F)(F)O2 [Compound 21],Stable (Stable is defined herein as less than 10% degradation)
11,O=C(Nc1ccc(-c2cc3c(cc2Cl)OC(F)(F)O3)cn1)c1c(F)cccc1F [Compound 3],Stable (Stable is defined herein as less than 10% degradation)
12,O=C(Nc1cnc(-c2cc3c(cc2Cl)OC(F)(F)O3)cn1)c1cccc(F)c1F [Compound 18],Stable (Stable is defined herein as less than 10% degradation)
13,Cc1ccccc1C(=O)Nc1cnc(-c2cc3c(cc2Cl)OC(F)(F)O3)cn1 [Compound 17],Stable (Stable is defined herein as less than 10% degradation)
14,Cc1ccc(F)cc1C(=O)Nc1cnc(-c2cc3c(cc2Cl)OC(F)(F)O3)cn1 [Compound 19],Stable (Stable is defined herein as less than 10% degradation)

# Same assay, conditions: pH 7.4, 5 μM test compound, 1 mg/mL microsomal protein, 37° C. up to 60 minutes, species and Phase I / Phase I+II not given, read-out: Microsomal t ½
row,half-life at 5 μM [min],SMILES
1,40,O=C(Nc1ccc(-c2cc3c(cc2Cl)OC(F)(F)O3)cn1)C1CCCC1 [Compound 27]
2,17,[2H]C1([2H])Oc2cc(C)c(-c3cnc(NC(=O)c4c(F)cccc4F)cn3)cc2O1 [Compound 16]
3,47,Cc1ccc(F)cc1C(=O)Nc1cnc(-c2cc3c(cc2C)OC(F)(F)O3)cn1 [Compound 26]
4,81,O=C(Nc1ccc(-c2cc3c(cc2Cl)OC(F)(F)O3)cn1)C1CC1 [Compound 33]
5,22,Cc1cc2c(cc1-c1ccc(NC(=O)c3c(F)cccc3F)nc1)OCO2 [Compound 10]
6,74,Cc1c(F)cccc1C(=O)Nc1cnc(-c2cc3c(cc2Cl)OC(F)(F)O3)cn1 [Compound 20]
7,109,Cc1ccccc1C(=O)Nc1ccc(-c2cc3c(cc2C)OC(F)(F)O3)cn1 [Compound 22]
8,11,O=C(Nc1ccc(-c2cc3c(cc2Cl)OC(F)(F)O3)cn1)C1CCC1 [Compound 30]
9,36,[2H]C1([2H])Oc2cc(C)c(-c3ccc(NC(=O)c4c(F)cccc4F)nc3)cc2O1 [Compound 15]
10,281,O=C(Nc1ccc(-c2cc3c(cc2Cl)OC(F)(F)O3)cn1)c1ccncc1F [Compound 4]
11,19,CCCC(=O)Nc1ccc(-c2cc3c(cc2Cl)OC(F)(F)O3)cn1 [Compound 32]
12,3,O=C(Nc1ccc(-c2cc3c(cc2Br)OCO3)cc1)c1c(F)cccc1F [Compound 2]
13,67,Cc1ccccc1C(=O)Nc1cnc(-c2cc3c(cc2C)OC(F)(F)O3)cn1 [Compound 24]
14,26,O=C(CCc1ccccc1)Nc1ccc(-c2cc3c(cc2Cl)OC(F)(F)O3)cn1 [Compound 31]
15,6,O=C(Nc1ccc(-c2cc3c(cc2Br)OCO3)cn1)c1c(F)cccc1F [Compound 1]
16,339,O=C(Nc1ccc(-c2cc3c(cc2Cl)OC(F)(F)O3)cn1)c1ccncc1Cl [Compound 7]
17,38,O=C(Nc1cnc(-c2cc3c(cc2Cl)OC(F)(F)O3)cn1)C1CCCC1 [Compound 29]
